Results on seven compounds are retold here after patent publication US11814368B2, “Triazine derivatives having virus replication inhibitory activity and pharmaceutical composition comprising the same” (priority 2021, dated 2023).

The assay deals with SARS-CoV-2. Description: microbe, parasite or virus in culture. The settings on record: for EC50: Severe acute respiratory syndrome coronavirus 2, 72 h, read-out: 50% SARS-CoV-2 infected cell death inhibitory concentration (EC50), VeroE6/TMPRSS2 cells, SARS-CoV-2, 3 days culture, CellTiter-Glo 2.0; for coronavirus replication inhibitory activity: at concentrations up to 50 µM. It is filed as cell-based.

Consider `O=C(O)c1ccc(Oc2ccc(/N=c3\[nH]c(=O)n(-c4ccon4)c(=O)n3Cc3ccc(Cl)cc3)cc2)nc1` [Patent Document 2 Compound I-580], for which the EC50 was above 50 µM and the “coronavirus replication inhibitory activity” value is given as “did not show coronavirus replication inhibitory activity”.

As for `O=C(O)c1ccc(Oc2ccc(/N=c3\[nH]c(=O)n(-c4cccs4)c(=O)n3Cc3ccc(Cl)cc3)cc2)nc1` [Patent Document 2 Compound I-575], the EC50 was above 50 µM and the “coronavirus replication inhibitory activity” value was “did not show coronavirus replication inhibitory activity”.

For `COc1ncccc1Cn1c(=O)[nH]/c(=N\c2ccc(OC(C)C)c(F)c2)n(Cc2ccc(Cl)cc2)c1=O` [Patent Document 1 Compound I-0683], the EC50 is above 50 µM and the “coronavirus replication inhibitory activity” value is recorded as “did not show coronavirus replication inhibitory activity”.

`CC(C)Oc1ccc(/N=c2\[nH]c(=O)n(Cc3ccc[nH]c3=O)c(=O)n2Cc2ccc(Cl)cc2)cc1F` [Patent Document 1 Compound I-0685]: the EC50 is above 50 µM and the “coronavirus replication inhibitory activity” value was “did not show coronavirus replication inhibitory activity”.

As for `Cc1nc2ccc(/N=c3\[nH]c(=O)n(C[C@H]4COC(C)(C)O4)c(=O)n3Cc3ccc(Cl)cc3)cc2s1` [Patent Document 1 Compound 1-1603], the EC50 was above 50 µM and the “coronavirus replication inhibitory activity” value was “did not show coronavirus replication inhibitory activity”.

`Cc1ccc(Cn2c(=O)nc(Nc3cccc(C(F)(F)F)c3)n(Cc3ccc(Cl)c(Cl)c3)c2=O)cc1` [Patent Document 3 Compound 1-066]: the EC50 is above 50 µM and the “coronavirus replication inhibitory activity” value is listed as “did not show coronavirus replication inhibitory activity”.

As for `CC(C)Oc1ccc(/N=c2\[nH]c(=O)n(Cc3ncn[nH]3)c(=O)n2Cc2ccc(Cl)cc2)cc1F` [Patent Document 1 Compound I-0679], the EC50 was above 50 µM and the “coronavirus replication inhibitory activity” value was “did not show coronavirus replication inhibitory activity”.
